Measurements published in patent publication US10227362B2 (priority 2015, dated 2019).
≈ marks a conversion by molar mass, not a printed value.

Tests used:
Format in all cases: cell-based
[1] = test system: Mycobacterium bovis BCG strain TMC1019 (ATCC35737); assay: microbe, parasite or virus in culture; conditions: Mycobacterium tuberculosis variant bovis BCG, 24 h, read-out: M. bovis ATCC35737 (ug/mL)
[2] = test system: Mycobacterium tuberculosis H37Rv strain; assay: In vitro MIC against M. tuberculosis H37Rv strain (MABA, Alamar Blue)
Description: Part I: The in vitro efficacy of anti-Mycobacterium tuberculosis compounds was tested using H37Rv strain.
On the day of the test, the compound was dissolved in pure DMSO (Sigma 276855-2L) to a concentration of 10 mg/mL which was used as the mother liquor of the compound. 30 μL of DMSO was added to wells of column 2 to 11 s of the v-bottom 96-well plates (Axygen-wipp02280). 30 μL of the mother liquor of the compound was added to the well of column 2, after mixing, 30 μL was taken from the well of column 2 and added to the well of column 3, and then pipetted and mixed. The operation was taken to column 10. Column 11 was free of medicine and contained only 30 μL of DMSO. This was the “motherplate” of the compound. From column 2 to 11, the corresponding concentration of the compound was 5, 2.5, 1.25, 0.625, 0.3125, 0.156, 0.078, 0.039, 0.02, 0 mg/mL. […] A flat bottom 96-well plate (Greiner 655090) was used as a “daughterplate”. 98 μL of 7H9 (Sigma M0178) medium was added to the wells of all daughterplates. 2 μL of compound was extracted from the motherboard and added to the corresponding daughter plate. Line A and H, column 1 and 12 of the daughterplate contained only 7H9 medium.
The H37Rv strain in the glycerol cryovial was inoculated into 7H9 medium containing 0.05% Tween 80 and cultured for 4 weeks at 37° C. in a shaker with 200 rpm. The bacterial liquid was washed twice with 7H9 medium containing 0.05% Tween 80 and resuspended in the same medium. The absorbance of the bacteria liquid was adjusted to OD550=0.4-0.5 using the same medium. The bacteria liquid was sub-packed in microcentrifuge tubes and stored at −80° C. Storage time was no more than 1 month. On the day of the test, the packaged bacteria liquid would be […]. The bacteria liquid was diluted 20 times and then diluted 50 times with 7H9 medium, and a total of 1000 times dilution. The bacteria liquid would be used to inoculate on the daughterplate. 100 μL of bacterial liquid was inoculated in each well of the daughterboard, 100 μL 7H9 medium was added to column 12 and without bacteria liquid.
The test daughterplate was placed in an incubator at 37° C. and the humidity was maintained at >80%. A week later, 12.5 μL of 7H9 medium containing 20% Tween 80 and 20 μL of Alamar Blue (Invitrogen DAL1100) were added to the well of a column 1 containing bacteria and the well of a column 12 without bacteria every day, and then continue to incubate for 24 hours and observed. When the added Alamar Blue was reduced to pink in 24 hours by the bacteria liquid in the well of column 1, the 7H9 medium containing 20% Tween 80 and Alamar Blue were added to all wells on the test plate and the fluorescence values were measured after incubation for 24 hours at 37° C.

Vero Cell = assay: Vero cell cytotoxicity; conditions: Chlorocebus sabaeus, Vero cells
M. tuberculosis H37R = assay: M. tuberculosis LORA MIC; conditions: Mycobacterium tuberculosis, read-out: M. tuberculosis H37R LORA (MIC) (ug/mL)

## C[C@]1(CN2Cc3nc(-c4ccc(F)c(F)c4)sc3C2)Cn2cc([N+](=O)[O-])nc2O1 [Compound 71, (S)-2-((2-(3,4-Difluorophenyl)-4H-pyrrolo[3,4-d]thiazol-5(6H)-yl)methyl)-2-methyl-6-nitro-2,3-dihydroimidazo[2,1-b]oxazole]
[1]
  MIC: < 1 µg/mL
[2]
  MIC: < 1 µg/mL
Vero Cell
  IC50: > 32 µg/mL

## CN(c1ccc(F)cc1)c1nc2c(s1)CN(C[C@@]1(C)Cn3cc([N+](=O)[O-])nc3O1)C2 [Compound 85, (S)—N-(4-Fluorophenyl)-N-methyl-5-((2-methyl-6-nitro-2,3-dihydroimidazo[2,1-b]oxazol-2-yl)methyl)-5,6-dihydro-4H-pyrrolo[3,4-d]thiazol-2-amine]
[1]
  MIC: < 1 µg/mL
[2]
  MIC: < 1 µg/mL
Vero Cell
  IC50: > 32 µg/mL

## C[C@]1(CN2Cc3nc(-c4ccc(F)cc4Cl)sc3C2)Cn2cc([N+](=O)[O-])nc2O1 [Compound 77, (S)-2-((2-(2-chloro-4-fluorophenyl)-4H-pyrrolo[3,4-d]thiazol-5(6H)-yl)methyl)-2-methyl-6-nitro-2,3-dihydroimidazo[2,1-b]oxazole]
[1]
  MIC: < 1 µg/mL
[2]
  MIC: < 1 µg/mL
Vero Cell
  IC50: > 32 µg/mL

## C[C@]1(CN2Cc3nc(-c4ccc(F)cc4F)sc3C2)Cn2cc([N+](=O)[O-])nc2O1 [Compound 78, (S)-2-((2-(2,4-Difluorophenyl)-4H-pyrrolo[3,4-d]thiazol-5(6H)-yl)methyl)-2-methyl-6-nitro-2,3-dihydroimidazo[2,1-b]oxazole]
[1]
  MIC: < 1 µg/mL
[2]
  MIC: < 1 µg/mL
Vero Cell
  IC50: > 32 µg/mL

## C[C@]1(CN2CCc3nc(-c4cc(F)cc(F)c4)ccc3C2)Cn2cc([N+](=O)[O-])nc2O1 [Compound 14, (S)-2-((2-(3,5-Difluorophenyl)-7,8-dihydro-1,6-naphthyridin-6(5H)-yl)methyl)-2-methyl-6-nitro-2,3-dihydroimidazo[2,1-b]oxazole]
[1]
  MIC: < 1 µg/mL
[2]
  MIC: < 1 µg/mL
M. tuberculosis H37R
  MIC: 1 to 32 µg/mL (≈ 2.34 to 74.9 µM)
Vero Cell
  IC50: > 32 µg/mL

## C[C@]1(CN2CCc3nc(-c4ccco4)ccc3C2)Cn2cc([N+](=O)[O-])nc2O1 [Compound 25, (S)-2-((2-(Furan-2-yl)-7,8-dihydro-1,6-naphthyridin-6(5H)-yl)methyl)-2-methyl-6-nitro-2,3-dihydroimidazo[2,1-b]oxazole]
[1]
  MIC: < 1 µg/mL
[2]
  MIC: < 1 µg/mL
M. tuberculosis H37R
  MIC: 1 to 32 µg/mL (≈ 2.62 to 83.9 µM)
Vero Cell
  IC50: > 32 µg/mL

## C[C@]1(CN2CCCc3nc(-c4ccc(F)cc4)ccc3C2)Cn2cc([N+](=O)[O-])nc2O1 [Compound 96, (S)-2-((2-(4-Fluorophenyl)-8,9-dihydro-5H-pyrido[3,2-c]azepin-6(7H)-yl)methyl)-2-methyl-6-nitro-2,3-dihydroimidazo[2,1-b]oxazole]
[1]
  MIC: < 1 µg/mL
[2]
  MIC: < 1 µg/mL
M. tuberculosis H37R
  MIC: 1 to 32 µg/mL (≈ 2.36 to 75.6 µM)
Vero Cell
  IC50: > 32 µg/mL

## C[C@]1(CN2CCc3nc(-c4cccc(F)c4)ccc3C2)Cn2cc([N+](=O)[O-])nc2O1 [Compound 6, (S)-2-((2-(3-Fluorophenyl)-7,8-dihydro-1,6-naphthyridin-6(5H)-yl)methyl)-2-methyl-6-nitro-2,3-dihydroimidazo[2,1-b]oxazole]
[1]
  MIC: < 1 µg/mL
[2]
  MIC: < 1 µg/mL
M. tuberculosis H37R
  MIC: 1 to 32 µg/mL (≈ 2.44 to 78.2 µM)
Vero Cell
  IC50: > 32 µg/mL

## C[C@]1(CN2CCc3nc(-c4ccc(F)cc4)oc3C2)Cn2cc([N+](=O)[O-])nc2O1 [Compound 61, (S)-2-(4-Fluorophenyl)-5-((2-methyl-6-nitro-2,3-dihydroimidazo[2,1-b]oxazol-2-yl)methyl)-4,5,6,7-tetrahydrooxazolo[5,4-c]pyridine]
[1]
  MIC: < 1 µg/mL
[2]
  MIC: < 1 µg/mL
M. tuberculosis H37R
  MIC: 1 to 32 µg/mL (≈ 2.5 to 80.1 µM)
Vero Cell
  IC50: > 32 µg/mL

## C[C@]1(CN2Cc3nc(-c4cccc(F)c4)sc3C2)Cn2cc([N+](=O)[O-])nc2O1 [Compound 70, (S)-2-((2-(3-Fluorophenyl)-4H-pyrrolo[3,4-d]thiazol-5(6H)-yl)methyl)-2-methyl-6-nitro-2,3-dihydroimidazo[2,1-b]oxazole]
[1]
  MIC: < 1 µg/mL
[2]
  MIC: < 1 µg/mL
Vero Cell
  IC50: > 32 µg/mL

## C[C@]1(CN2CCc3nc(-c4ccc(F)cc4F)ccc3C2)Cn2cc([N+](=O)[O-])nc2O1 [Compound 13, (S)-2-((2-(2,4-Difluorophenyl)-7,8-dihydro-1,6-naphthyridin-6(5H)-yl)methyl)-2-methyl-6-nitro-2,3-dihydroimidazo[2,1-b]oxazole]
[1]
  MIC: < 1 µg/mL
[2]
  MIC: < 1 µg/mL
M. tuberculosis H37R
  MIC: 1 to 32 µg/mL (≈ 2.34 to 74.9 µM)
Vero Cell
  IC50: > 32 µg/mL

## C[C@]1(CN2CCc3nc(-c4ccc(Cl)c(F)c4)ccc3C2)Cn2cc([N+](=O)[O-])nc2O1 [Compound 20, (S)-2-((2-(4-Chloro-3-fluorophenyl)-7,8-dihydro-1,6-naphthyridin-6(5H)-yl)methyl)-2-methyl-6-nitro-2,3-dihydroimidazo[2,1-b]oxazole]
[1]
  MIC: < 1 µg/mL
[2]
  MIC: < 1 µg/mL
M. tuberculosis H37R
  MIC: 1 to 32 µg/mL (≈ 2.25 to 72.1 µM)
Vero Cell
  IC50: > 32 µg/mL

## C[C@]1(CN2CCc3nc(-c4ccccc4F)ccc3C2)Cn2cc([N+](=O)[O-])nc2O1 [Compound 5, (S)-2-((2-(2-Fluorophenyl)-7,8-dihydro-1,6-naphthyridin-6(5H)-yl)methyl)-2-methyl-6-nitro-2,3-dihydroimidazo[2,1-b]oxazole]
[1]
  MIC: < 1 µg/mL
[2]
  MIC: < 1 µg/mL
M. tuberculosis H37R
  MIC: 1 to 32 µg/mL (≈ 2.44 to 78.2 µM)
Vero Cell
  IC50: > 32 µg/mL

## C[C@]1(CN2CCc3nc(-c4ccc(F)c(F)c4)ccc3C2)Cn2cc([N+](=O)[O-])nc2O1 [Compound 12, (S)-2-((2-(3,4-Difluorophenyl)-7,8-dihydro-1,6-naphthyridin-6(5H)-yl)methyl)-2-methyl-6-nitro-2,3-dihydroimidazo[2,1-b]oxazole]
[1]
  MIC: < 1 µg/mL
[2]
  MIC: < 1 µg/mL
M. tuberculosis H37R
  MIC: 1 to 32 µg/mL (≈ 2.34 to 74.9 µM)
Vero Cell
  IC50: > 32 µg/mL

## C[C@]1(CN2CCc3nc(-c4ccc(C(F)(F)F)cc4)ccc3C2)Cn2cc([N+](=O)[O-])nc2O1 [Compound 10, (S)-2-Methyl-6-nitro-2-((2-(4-(trifluoromethyl)phenyl)-7,8-dihydro-1,6-naphthyridin-6(5H)-yl)methyl)-2,3-dihydroimidazo[2,1-b]oxazole]
[1]
  MIC: < 1 µg/mL
[2]
  MIC: < 1 µg/mL
Vero Cell
  IC50: > 32 µg/mL

## C[C@]1(CN2CCc3sc(-c4ccc(F)cc4)nc3C2)Cn2cc([N+](=O)[O-])nc2O1 [Compound 67, (S)-2-((2-(4-Fluorophenyl)-6,7-dihydrothiazolo[4,5-c]pyridin-5(4H)-yl)methyl)-2-methyl-6-nitro-2,3-dihydroimidazo[2,1-b]oxazole]
[1]
  MIC: < 1 µg/mL
[2]
  MIC: < 1 µg/mL
Vero Cell
  IC50: > 32 µg/mL
